Reference: paper PMC6950716, “Bioactive Secondary Metabolites from the Culture of the Mangrove-Derived Fungus Daldinia eschscholtzii HJ004” (Marine Drugs, 2019)
≈ marks a conversion by molar mass, not a printed value.

Target: α-glucosidase
Assay: α-glucosidase inhibition assay in 96-well plates (modified Sawada et al.)
Type: biochemical

Structure (SMILES)	IC50 [µg/mL]
COc1cccc2cc(C(C)=O)oc12 [compound 7, 2-acetyl-7-methoxybenzofuran]	1.1 (≈ 5.78 µM)
COC1=CC(=O)c2c(cc3c(c2O)COC3)C1=O [compound 4, 5-hydroxy-2-methoxynaphtho[9–c]furan-1,4-dione]	5.7 (≈ 23.2 µM)
